Consider three substances from paper PMC8298264, “Function of cofactor Akirin2 in the regulation of gene expression in model human neutrophil-like HL60 cells” (Bioscience Reports, 2021).

Assay [1] has as its system recombinant human Akirin2 (recAkirin2). Nature of the assay: EpiTriton Histone Peptide Array, recAkirin2 binding (fluorescence). The conditions noted are these: recAkirin2 vs HSP70, Student's t test and One-Way ANOVA (P<0.05), n=2 technical replicates.
For a further assay, the target named is recAkirin2 (Homo sapiens, UniProt Q53H80). Nature of the assay: In vitro protein pull-down and Western blot of recAkirin2 with biotinylated histone H3.1 peptides. The assay is classed as binding. Also noted: DDK (FLAG) (C); purchased GenScript (E. coli) or OriGene (HEK293T); 'insect cells and E. coli'. The conditions noted are these: streptavidin beads, 1 µg protein, 2 h at RT, Akirin2-specific antibody ab130473. (A western blot detects proteins with antibodies after separation by electrophoresis.)
Sequence of recAkirin2 (Q53H80 whole entry): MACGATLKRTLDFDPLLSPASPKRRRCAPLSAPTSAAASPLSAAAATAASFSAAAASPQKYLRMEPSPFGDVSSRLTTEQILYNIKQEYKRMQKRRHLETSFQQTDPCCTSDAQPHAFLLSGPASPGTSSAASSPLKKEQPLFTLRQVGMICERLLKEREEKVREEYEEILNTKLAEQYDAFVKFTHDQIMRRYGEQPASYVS

The subject of another assay is tick SUB. The settings on record: cited from earlier work. From the text: Epigenetic modifications of histone H3.1 at Lys amino acids has been involved in the regulation of transcription in different BPs and pathogen infection [[48–51]].
For assay [2], the system named is ELANE and LHX2 mRNA in human HL60 cells. Nature of the assay: Akirin2 'distraction' by histone peptide transfection, ELANE and LHX2 mRNA by qRT-PCR. The class given is cell-based. The settings on record: 1.5 μg peptide per well, HL60 1 × 10^5 cells/well, harvested after 72 h; normalized to β-actin; unpaired t test P<0.05, n=3 biological replicates. (In general: Quantitative PCR measures a nucleic acid by following its amplification.)

For the substance “ARTKQTARKSTGGK(Me2)APRKQL-Peg-Biot [Peptide H3met, histone H3.1 amino acids 1–20 dimethylated at Lys^14, biotinylated]”, the “Akirin2–histone interaction by histone peptide array” value in assay [1] was “Akirin2–histone H3.1 interacting peptides”. Further, the “recAkirin2–histone H3.1 peptide interaction by pull-down and Western blot” value on recAkirin2 was “corroborated by in vitro protein pull-down and Western blot analysis”.

For “histone H4 but: histone H4, amino acids 1–23 butyrylated at Lys 5, 8 and 12”, in the assay with tick SUB, the “physical interaction with tick SUB” value is recorded as “physical interaction”. Consider “H2A: unrelated histone H2A (amino acids 1–17) peptide (Epicypher, Inc.) (SGRGKQGGKARAKAKTR; UniProt P0C0S8 2-18, looked up, fragment) [Peptide H2A]”, for which the “Effect of transfection on gene expression (ELANE and LHX2 mRNA)” value in assay [2] is “not the unrelated H2A or HEPES buffer affected gene expression”.
